This is an account of results in patent EP0609289B1, “IMIDAZOLE DERIVATIVES AND PHARMACEUTICAL COMPOSITIONS CONTAINING THE SAME” (THE UPJOHN COMPANY, priority 1991, dated 1993).

One assay addresses Angiotensin II receptor. Kind of assay: In vitro angiotensin II mesenteric artery receptor binding assay (test 1). The conditions noted are these: rat mesenteric artery membrane fraction, 0.2 nM 125I-Ang II, 22°C, 90 minutes. A digest of the protocol: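 Rat mesenteric artery membranes ([…] protein equivalent) incubated with 0.2 nM ^125I-Ang II and compound, 90 min at 22°C, pH 7.2 Tris buffer. Bound radioactivity counted after filtration; nonspecific binding defined with 1 µM unlabeled angiotensin II.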

Assay [1] deals with angiotensin II constriction in an isolated rabbit thoracic aorta. Kind of assay: Antagonism to angiotensin II constriction in an isolated rabbit thoracic aorta (test 3). The following applies: test compound 10^-6 M for 20 minutes. Here is the method:
3) Antagonism to angiotensin II constriction in an isolated rabbit thoracic aorta
A rectangular strip-like sample of thoracic aorta isolated from an anaesthetized rabbit was prepared, and the sample was suspended at 2.0 g of loaded tension in a Magnus tube filled with Krebs-Henseleitoid nutrition solution which was well aerated with 95% O2-5% CO2, and the constriction tension was measured using an isometric transducer. After the tension of the sample at rest became stable, accumulative administration of angiotensin II was carried out to obtain a concentration-action curve. Thereafter, the sample was washed with the same nutrition solution, then treated with test compound (10^-6 M) for 20 minutes to obtain again a concentration-action curve of angiotensin II. The results were obtained as followed: generated maximum tension at the first accumulative administration of angiotensin II was regarded as 100 %, and the 50 % effective concentration (ED50) was obtained in the presence or absence of the test compound, and pA2 value was calculated according to the following equations: • pA2=-logKB KB=C/{(A'/A)-1} • C; concentration of the test compound (M) • A'; ED50 in the presence of test compound (M) • A; ED50 in the absence of the test compound (M)

For assay [2], the system named is blood pressure increase by angiotensin II. The experiment in a line: Antagonism to blood pressure increase by angiotensin II in a spine destroyed (pithed) rat (test 4). In kind it is in vivo, Wistar rat. The conditions noted are these: intravenous administration, 3µg/kg angiotensin II, read-out: Inhibition of blood pressure increase by angiotensin II in pithed rat ED50(mg/kg) (test 4). From the text:
4) Antagonism to blood pressure increasing by angiotensin II in a spine destroyed rat
Wistar rat anaesthetized with pentobarbital was fixed at dorsal position, and a cannula for measuring blood pressure was inserted into sinister arteria carotis communis, and a cannula for administration of the test compound into dexter external jugular vein and a cannula for administration of angiotensin II into sinister external jugular vein, ambilateral nervus vagus was cut, and artificial respiration was carried out. A thin bar made of metal was stabbed into spinal column through sinister orbita to destroy spine. Blood pressure was recorded on polygraph via pressure transducer from an arterial cannula. After blood pressure was stable for more than 30 min., 3µg/kg of angiotensin II was administered intravenously four times every 15 min, and every 5 min. before the administration of angiotensin II from the second administration onward, a solvent, a lower dose of the test compound, and a higher dose of the test compound were administered intravenously in this order to observe the blood pressure increasing response by angiotensin II. ED50 values were calculated from the inhibiting rate when the first blood pressure increase by angiotensin II was regarded as 100 %.

Assay [3] shares this test system. Kind of assay: Blood pressure increase by angiotensin II-inhibiting test, intraduodenal administration, anesthetized normotensive rat. In kind it is in vivo.
In assay [4] the test system is hypertensive rat model (SHR). Kind of assay: Oral administration test in hypertensive rat model (SHR). In kind it is in vivo. The following applies: 10 mg/kg oral administration.

Usually IC50 stands for the concentration at which inhibition is half-maximal.

Structures are written as SMILES.

Take `CCCc1nc2c(=O)n3n(c(=O)c2n1Cc1ccc(-c2ccccc2-c2nnn[nH]2)cc1)C(C)CCC3C(=O)NC(C)(C)C` (stereo not drawn) [Compound No. 207, 4,9-dioxo-8-methyl-2-n-propyl-5,6,7,8-tetrahydro-1-[{2'-(1H-tetrazol-5-yl)biphenyl-4-yl}methyl]-1H-1,3,4a,8a-tetraza-cyclopentanaphthalene-5-carboxy-N-t-butylamide]: on Angiotensin II receptor, the IC50 is 3.9 nM. Further, the “Inhibition of rabbit aorta constriction pA2 (test 3)” value (shortened to “Inhibition”) in assay [1] came to 10.1. Besides, in assay [2], the ED50 came to 0.033 mg/kg.

With `CCCCc1nc2c(=O)n3n(c(=O)c2n1Cc1ccc(-c2ccccc2-c2nnn[nH]2)cc1)C1CCC3(CO)CC1` [Compound No. 220, 2-n-butyl-5,8-ethano-5-hydroxymethyl-5,6,7,8-tetrahydro-1-[{2'-(1H-tetrazol-5-yl)biphenyl-4-yl}methyl]-1H-1,3,4a,8a-tetraza-cyclopentanaphthalene-4,9-dione], the IC50 on Angiotensin II receptor came out at 2.6 nM. Moreover, in assay [1], the “Inhibition” value was 9.93. In addition, the ED50 in assay [2] came out at 0.27 mg/kg.

With `CCCc1nc2c(=O)n3n(c(=O)c2n1Cc1ccc(-c2ccccc2-c2nnn[nH]2)cc1)C1CCC3(COCC(=O)OC(C)(C)C)CC1` [Compound No. 223, 5-t-butoxycarboxylmethoxymethyl-5,8-ethano-2-n-propyl-5,6,7,8-tetrahydro-1-[{2'-(1H-tetrazol-5-yl)biphenyl-4-yl}methyl]-1H-1,3,4a,8a-tetraza-cyclopentanaphthalene-4,9-dione], on Angiotensin II receptor, the IC50 was 9.8 nM. Also, the “Inhibition” value in assay [1] is recorded as 9.68. For the same molecule, the ED50 in assay [2] turned out to be 0.1 mg/kg.

Regarding `CCCc1nc2c(=O)n3n(c(=O)c2n1Cc1ccc(-c2ccccc2-c2nn[nH]n2)cc1)C1CCC3(C(=O)NC(C)(C)C)CC1` [Compound No. 235, 4,9-dioxo-5,8-ethano-2-n-propyl-5,6,7,8-tetrahydro-1-[{2'-(1H-tetrazol-5-yI)biphenyl-4-yl}methyl]-1H-1,3,4a,8a-tetraza-cyclopentanaphthalene-5-carboxy-N-t-butylamide], the IC50 on Angiotensin II receptor was 21 nM. Besides, in assay [1], the “Inhibition” value was 9.62. Also, in assay [2], the ED50 worked out at 0.07 mg/kg.

Take `CCCc1nc2c(n1Cc1ccc(-c3ccccc3-c3nn[nH]n3)cc1)C(=O)N1C3CCC(CC3)N1C2` [Compound No. 438, 5,8-ethano-2-n-propyl-5,6,7,8-tetrahydro-1-[{2'-(1H-tetrazol-5-yl)biphenyl-4-yl}methyl],1H,4H-1,3,4a,8a-tetraza-cyclopentanaphthalene-9-one]: at Angiotensin II receptor, the IC50 was 7.5 nM. Also, the “Inhibition” value in assay [1] amounted to 8.57. Besides, the ED50 in assay [2] stood at 0.37 mg/kg.

At Angiotensin II receptor, `CCCc1nc2c(n1Cc1ccc(-c3ccccc3-c3nn[nH]n3)cc1)C(=O)N1N(C2)C2(C)CCC1(C)CC2` [Compound No. 450, 5,8-dimethyl-5,8-ethano-2-n-propyl-5,6,7,8-tetrahydro-1-[{2'-(1H-tetrazol-5-yl)biphenyl-4-yl}methyl)-1H,4H-1,3,4a,8a-tetraza-cyclopentanaphthalene-9-one] showed an IC50 of 1.7 nM. Further, the “Inhibition” value in assay [1] is reported as 9.92. Moreover, the ED50 came to 0.32 mg/kg in assay [2] and 0.95 mg/kg in assay [3]. The action lasting time result in assay [3] (3 mg/kg) is “not less than 5 hours”.

On to `CCCCc1nc2c(n1Cc1ccc(-c3ccccc3-c3nn[nH]n3)cc1)C(=O)N1N(C2)C2(C)CCC1(C)CC2` [Compound No. 451, 2-n-butyl-5,8-dimethyl-5,8-ethano-5,6,7,8-tetrahydro-1-[{2'-(1H-tetrazol-5-yl)biphenyl-4-yl}methyl]-1H,4H-1,3,4a,8a-tetraza-cyclopentanaphthalene-9-one], for which the IC50 at Angiotensin II receptor turned out to be 1.9 nM. Besides, the “Inhibition” value in assay [1] is recorded as 10.04. Besides, the results for the ED50 in assay [2] and in assay [3] were 0.63 mg/kg and 0.84 mg/kg, respectively. Also, the action lasting time entry in assay [3] (1 mg/kg) is “not less than 5 hours”. In addition, the vasodepressor activity entry in assay [4] is reported as “significant vasodepressor activity over 24 hours”.

Take `CCCc1nc2c(n1Cc1ccc(-c3ccccc3-c3nnn[nH]3)cc1)C(=O)N1N(C2)C2(CC)CCC1(CC)CC2` [Compound No. 454, 5,8-diethyl-5,8-ethano-2-n-propyl-5,6,7,8-tetrahydro-1-[{2'-(1H-tetrazol-5-yl)biphenyl-4-yl}methyl]-1H,4H-1,3,4a,8a-tetraza-cyclopentanaphthalene-9-one]: the IC50 at Angiotensin II receptor amounted to 3.5 nM. The “Inhibition” value in assay [1] came to 10.34. Moreover, the ED50 in assay [2] was 0.34 mg/kg; in assay [3], 1.28 mg/kg. For the same molecule, in assay [3] (3 mg/kg), the action lasting time entry was “not less than 5 hours”.

Turning to `CCCCc1nc2c(n1Cc1ccc(-c3ccccc3-c3nnn[nH]3)cc1)C(=O)N1N(C2)C2(CC)CCC1(CC)CC2` [Compound No. 455, 2-n-butyl-5,8-diethyl-5,8-ethano-5,6,7,8-tetrahydro-1-[{2'-(1H-tetrazol-5-yl)biphenyl-4-yl}methyl]-1H,4H-1,3,4a,8a-tetraza-cyclopentanaphthalene-9-one], at Angiotensin II receptor, the half-maximal inhibitory concentration (IC50) was found to be 3.3 nM. In addition, in assay [1], the “Inhibition” value stood at 8.82. Also, the ED50 came out at 0.64 mg/kg in assay [2] and 0.81 mg/kg in assay [3]. Moreover, the action lasting time result in assay [3] (1 mg/kg) is given as “not less than 5 hours”.
